Test results reported in patent US20230416316A1, “ADP-RIBOSE BINDING PEPTIDES WITH ANTI-CANCER ACTIVITY AND USE THEREOF” (PearlsInMires Co., Ltd., priority 2021, published 2023).
Entries after “also recorded” stand apart in the source; their conditions may differ. Ends that are not written are not given here.

Columns and labels:
Format in all cases: cell-based
HDPC = assay: Cytotoxicity in normal cells HDPC; conditions: HDPC human dermal papilla cell, 25, 50 and 100 μM, 24, 48 or 72 hours; listed as SEQ ID NO: 7
Experimental: (§1) As normal cells for testing, CCD-18Co, which is a human colon fibroblast, and HDPC, which is a human dermal papilla cell, were used. Further, the peptide of SEQ ID NO: 7 was used as a representative peptide of Examples of the present disclosure.
(§2) First, 5×10^3 cells of each normal cell were inoculated into a 96-well plate and cultured in DMEM medium for 24 hours under conditions of 37° C. and 5% CO2. The respective wells were divided into a group untreated with the peptide and groups treated with the peptide of SEQ ID NO: 7 (25, 50, and 100 μM, respectively), and tested.

CCD-18Co = assay: Cytotoxicity in normal cells CCD-18Co; conditions: CCD-18Co human colon fibroblast, 25, 50 and 100 μM, 24, 48 or 72 hours; listed as SEQ ID NO: 7
Experimental: as §1, §2

H1975 cells = assay: Viability of H1975 cells, osimertinib alone or combined with peptides; conditions: Homo sapiens, NCI-H1975, 1 nM osimertinib alone, 24 hours, read-out: viable cancer cells
Experimental: (§3) After culturing 3×10^3 H1975 cells in a 96-well plate for 24 hours under conditions of 37° C. and 5% CO2, the cells were treated with 1 nM osimertinib alone or in combination with the peptides of Examples 1 to 14 at a concentration of 0.2, 1 or 8 μM. Then, the cells were cultured for 24 hours under conditions of 37° C. and 5% CO2, and 10 μl of 3-(4,5-dimethylthiazol-2-yl)-2,5-diphenyltetrazolium bromide reagent was added to each well, followed by reaction for 1 hour. After the reaction was completed, the reagent was removed, 200 μl of dimethyl sulfoxide was added to each well, and the absorbance was measured to confirm cell viability.

Aspc-1 cells = assay: Viability of Aspc-1 cells, gemcitabine alone or combined with peptides; conditions: 1 nM gemcitabine alone, 24 hours
Experimental: as §3, with “3×10^3 Aspc-1” for “3×10^3 H1975”, “nM gemcitabine” for “nM osimertinib”, “Examples 15” for “Examples 1”, “to 28” for “to 14”

MDA-MB-231 cells = assay: Viability of MDA-MB-231 cells, docetaxel alone or combined with peptides; conditions: 50 μM docetaxel alone, 24 hours
Experimental: as §3, with “3×10^3 MDA-MB-231” for “3×10^3 H1975”, “with 50 μM docetaxel” for “with 1 nM osimertinib”, “Examples 15” for “Examples 1”, “to 28” for “to 14”, “CO2,” for “CO2, and”

Compound: FSYKIDFAEMKQMNLTTGKQRLIKR [Example 7]
- cytotoxicity to normal cells versus untreated control (HDPC): no significant difference; also recorded: no toxicity was shown
- cytotoxicity to normal cells versus untreated control (CCD-18Co): no significant difference; also recorded: no toxicity was shown

Compound: C=CC(=O)Nc1cc(Nc2nccc(-c3cn(C)c4ccccc34)n2)c(OC)cc1N(C)CCN(C)C [osimertinib]
- viability at 0.001 µM (H1975 cells): ~49%

Compound: Nc1ccn([C@@H]2O[C@H](CO)[C@@H](O)C2(F)F)c(=O)n1 [gemcitabine]
- cancer cells survived (Aspc-1 cells): about 50%

Compound: CC(=O)O[C@@]12CO[C@@H]1C[C@H](O)[C@@]1(C)C(=O)[C@H](O)C3=C(C)[C@@H](OC(=O)[C@H](O)[C@@H](NC(=O)OC(C)(C)C)c4ccccc4)C[C@@](O)([C@@H](OC(=O)c4ccccc4)[C@H]21)C3(C)C [docetaxel]
- cancer cells survived (MDA-MB-231 cells): about 52%
